Read-outs that look alike come from different tables or passages of the source.
How the values were obtained:
Assay type in all cases: in vivo
Eleusine indica (ELEIN) = assay: Post-emergence action against weeds, greenhouse pot test, visual rating: Eleusine indica; settings: for pest or weed control at 150 g/ha: 150 g a.i./ha; for pest or weed control at 50 g/ha: 50 g a.i./ha; for pest or weed control at 15 g/ha: 15 g a.i./ha
Procedure: (§1) When the observed efficacies already exceed the formal sum total of the values of the tests with individual applications, they also exceed the expected value according to Colby, which is calculated using the formula below and is likewise regarded as an indication of synergism (cf. S. R. Colby; in Weeds 15 (1967) pp. 20 to 22):
(§2) where: • A=efficacy of the active ingredient (A) in % at an application rate of a [g a.i./ha]; • B=efficacy of the active ingredient (B) in % at an application rate of b [g a.i./ha]; • E^C=expected value of the effect of the combination (A)+(B) in % at the combined application rate a+b [g a.i./ha].
(§3) The observed values (E^A) from the experiments, given suitable low dosages, show an effect of the combinations exceeding the expected values according to Colby (E^C) (Δ).
(§4) Seeds of mono- and dicotyledonous weeds were placed in sandy loam in pots, covered with soil and grown in a greenhouse under good growth conditions (temperature, air humidity, water supply). Two to three weeks after sowing, the test plants were treated at the two- to four-leaf stage with the compositions of the invention. The compositions of the invention, formulated as spray powders or as emulsion concentrates, were sprayed onto the green parts of the plant in various dosages with an application rate equivalent to […] of water. After the test plants had been kept in the greenhouse under optimum growth conditions for 3 weeks, the activity of the preparations was rated visually in comparison to untreated controls.
(§5) 100% efficacy means complete control of the particular weed tested.
(§6) 0% efficacy means zero control of the particular weed tested.
(§7) Expected values according to Colby are reported under E.
(§8) The exceedance of the expected value E is given as Δ (=synergistic effect).
(§9) The rating period is reported in days after application (DAT).

Lolium rigidum (LOLRI) = assay: Post-emergence action against weeds, greenhouse pot test, visual rating: Lolium rigidum
Avena fatua (AVEFA) = assay: Post-emergence action against weeds, greenhouse pot test, visual rating: Avena fatua; settings: for pest or weed control at 4 g/ha: 4 g a.i./ha
[1] = tested on: Brachiaria platyfylla (BRAPP); assay: Post-emergence action against weeds, greenhouse pot test, visual rating: Brachiaria platyfylla
Procedure: as §1, §2, §3, §4, §5, §6, §7, §8, §9

Centaurea cyanus (CENCY) = assay: Post-emergence action against weeds, greenhouse pot test, visual rating: Centaurea cyanus
Procedure: as §1, §2, §3, §4, §5, §6, §7, §8, §9

Kochia scoparia (KCHSC) = assay: Post-emergence action against weeds, greenhouse pot test, visual rating: Kochia scoparia
[2] = tested on: Echinochloa crus-galli (ECHCG); assay: Post-emergence action against weeds, greenhouse pot test, visual rating: Echinochloa crus-galli
[3] = tested on: Pharbitis purpurea (PHBPU); assay: Post-emergence action against weeds, greenhouse pot test, visual rating: Pharbitis purpurea
Procedure: as §1, §2, §3, §4, §5, §6, §7, §8, §9

[4] = tested on: Sorghum halepense (SORHA); assay: Post-emergence action against weeds, greenhouse pot test, visual rating: Sorghum halepense
Procedure: as §1, §2, §3, §4, §5, §6, §7, §8, §9

Bidens pilosa (BIDPI) = assay: Post-emergence action against weeds, greenhouse pot test, visual rating: Bidens pilosa
[5] = Eleusine indica, post-emergence, 240 h, read-out: Herbicidal effect [%] on ELEIN 10 DAT
[6] = Eleusine indica, post-emergence, 504 h, read-out: Herbicidal effect [%] on ELEIN 21 DAT
[7] = Lolium rigidum, 504 h, read-out: Herbicidal effect [%] on LOLRI 21 DAT
[8] = Avena fatua, 240 h, 10 DAT, read-out: Herbicidal effect [%] on AVEFA 10 DAT
[9] = post-emergence, 240 h, read-out: Herbicidal effect [%] on BRAPP 10 DAT
[10] = Bassia scoparia, post-emergence, 504 h, read-out: Herbicidal effect [%] on KCHSC 21 DAT

Compound: CP(=O)(O)CCC(N)C(=O)O (stereo not drawn) [Glufosinate, glufosinate]
- pest or weed control at 30 g/ha (Eleusine indica (ELEIN); [5]): 10%

Compound: C[n+]1ccc(-c2cc[n+](C)cc2)cc1 [Paraquat, paraquat]
- pest or weed control at 40 g/ha (Eleusine indica (ELEIN); [5]): 40%
- pest or weed control at 40 g/ha (Eleusine indica (ELEIN); [6]): 10%
- pest or weed control at 40 g/ha (Lolium rigidum (LOLRI); [7]): 10%

Compound: CCOCN(C(=O)CCl)c1c(C)cccc1CC [Acetochlor, acetochlor]
- pest or weed control at 150 g/ha (Eleusine indica (ELEIN); [5]): 80%
- pest or weed control at 150 g/ha (Eleusine indica (ELEIN); [6]): 90%
- Herbicidal effect [%] on LOLRI 10 DAT (Lolium rigidum (LOLRI); 150 g a.i./ha): 40%
- pest or weed control at 150 g/ha (Lolium rigidum (LOLRI); Lolium rigidum, 504 h, 150 g a.i./ha, 21 DAT, read-out: Herbicidal effect [%] on LOLRI 21 DAT): 0%

Compound: CS(=O)(=O)c1ccc(C(=O)C2C(=O)CCCC2=O)c([N+](=O)[O-])c1 [Mesotrione, mesotrione]
- pest or weed control at 4 g/ha (Eleusine indica (ELEIN); Eleusine indica, post-emergence, 504 h, 4 g a.i./ha, read-out: Herbicidal effect [%] on ELEIN 21 DAT): 10%
- pest or weed control at 4 g/ha (Avena fatua (AVEFA); [8]): 10%
- pest or weed control at 4 g/ha ([1]; post-emergence, 504 h, 4 g a.i./ha, read-out: Herbicidal effect [%] on BRAPP 21 DAT): 0%
- Herbicidal effect [%] on CENCY 21 DAT (Centaurea cyanus (CENCY); 4 g a.i./ha): 40%
- pest or weed control at 4 g/ha (Lolium rigidum (LOLRI); Lolium rigidum, 504 h, 4 g a.i./ha, 21 DAT, read-out: Herbicidal effect [%] on LOLRI 21 DAT): 0%
- Herbicidal effect [%] on KCHSC 10 DAT (Kochia scoparia (KCHSC); 4 g a.i./ha): 30%

Compound: CCNc1nc(Cl)nc(NC(C)(C)C)n1 [Terbuthylazine, terbuthylazine]
- Herbicidal effect [%] on ECHCG 10 DAT ([2]; 50 g a.i./ha): 10%
- Herbicidal effect [%] on ECHCG 21 DAT ([2]; 50 g a.i./ha): 0%
- pest or weed control at 50 g/ha (Eleusine indica (ELEIN); [5]): 85%
- pest or weed control at 50 g/ha (Eleusine indica (ELEIN); [6]): 70%
- pest or weed control at 50 g/ha ([1]; post-emergence, 240 h, 50 g a.i./ha, read-out: Herbicidal effect [%] on BRAPP 10 DAT): 10%
- pest or weed control at 50 g/ha (Lolium rigidum (LOLRI); Lolium rigidum, 504 h, 50 g a.i./ha, 21 DAT, read-out: Herbicidal effect [%] on LOLRI 21 DAT): 0%

Compound: COc1c(Cl)ccc(-c2nc(C(=O)O)c(Cl)c(N)c2F)c1F [Florpyrauxifen, florpyrauxifen]
- Herbicidal effect [%] on PHBPU 21 DAT ([3]; 1 g a.i./ha): 10%

Compound: CCSC(C)CC1CC(=O)C(/C(CC)=N/OC/C=C/Cl)=C(O)C1 (stereo not drawn) [Clethodim, clethodim]
- pest or weed control at 8 g/ha (Eleusine indica (ELEIN); [6]): 30%
- pest or weed control at 8 g/ha [1, 9]: 85%
- Herbicidal effect [%] on LOLRI 10 DAT (Lolium rigidum (LOLRI); 8 g a.i./ha): 80%
- Herbicidal effect [%] on SORHA 10 DAT ([4]; 8 g a.i./ha, 10 DAT): 80%
- pest or weed control at 8 g/ha (Kochia scoparia (KCHSC); [10]): 0%

Compound: O=C(O)COc1ccc(Cl)cc1Cl [2,4-D]
- Herbicidal effect [%] on ELEIN 10 DAT (Eleusine indica (ELEIN); 40 g a.i./ha): 10%
- Herbicidal effect [%] on AVEFA 10 DAT (Avena fatua (AVEFA); 10 DAT, 40 g a.i./ha): 0%
- Herbicidal effect [%] on BRAPP 10 DAT ([1]; 40 g a.i./ha): 0%
- Herbicidal effect [%] on BRAPP 21 DAT ([1]; 40 g a.i./ha): 0%
- Herbicidal effect [%] on CENCY 21 DAT (Centaurea cyanus (CENCY); 40 g a.i./ha): 75%

Compound: CCNc1nc(Cl)nc(NC(C)C)n1 [Atrazine, atrazine]
- pest or weed control at 50 g/ha (Eleusine indica (ELEIN); [5]): 30%
- pest or weed control at 50 g/ha (Eleusine indica (ELEIN); [6]): 0%
- Herbicidal effect [%] on PHBPU 10 DAT ([3]; 50 g a.i./ha, 10 DAT): 30%
- Herbicidal effect [%] on PHBPU 21 DAT ([3]; 50 g a.i./ha): 20%

Compound: COc1c(Cl)ccc(Cl)c1C(=O)O [Dicamba, dicamba]
- Herbicidal effect [%] on ECHCG 10 DAT ([2]; 5 g a.i./ha): 0%
- pest or weed control at 5 g/ha (Eleusine indica (ELEIN); [5]): 0%
- pest or weed control at 5 g/ha (Eleusine indica (ELEIN); [6]): 0%
- Herbicidal effect [%] on BIDPI 10 DAT (Bidens pilosa (BIDPI); 5 g a.i./ha): 30%
- Herbicidal effect [%] on BIDPI 21 DAT (Bidens pilosa (BIDPI); 5 g a.i./ha): 40%
- pest or weed control at 5 g/ha [1, 9]: 0%
- pest or weed control at 5 g/ha ([1]; post-emergence, 504 h, read-out: Herbicidal effect [%] on BRAPP 21 DAT): 0%
- pest or weed control at 5 g/ha (Lolium rigidum (LOLRI); [7]): 0%
- Herbicidal effect [%] on KCHSC 10 DAT (Kochia scoparia (KCHSC); 5 g a.i./ha): 20%
- pest or weed control at 5 g/ha (Kochia scoparia (KCHSC); [10]): 20%

Compound: Cn1nc(C(F)(F)F)c(CS(=O)(=O)C2=NOC(C)(C)C2)c1OC(F)F [Pyroxasulfone, pyroxasulfone]
- pest or weed control at 15 g/ha (Eleusine indica (ELEIN); [5]): 10%
- pest or weed control at 15 g/ha (Eleusine indica (ELEIN); [6]): 60%
- pest or weed control at 15 g/ha ([1]; post-emergence, 240 h, 15 g a.i./ha, read-out: Herbicidal effect [%] on BRAPP 10 DAT): 20%
- pest or weed control at 15 g/ha (Kochia scoparia (KCHSC); Bassia scoparia, post-emergence, 504 h, 15 g a.i./ha, read-out: Herbicidal effect [%] on KCHSC 21 DAT): 0%

Compound: O=C(O)CNCP(=O)(O)O [Glyphosate, glyphosate]
- Herbicidal effect [%] on ECHCG 10 DAT ([2]; 30 g a.i./ha): 20%
- pest or weed control at 30 g/ha (Kochia scoparia (KCHSC); [10]): 0%

Compound: O=C(Nc1ccc(F)cc1F)c1cccnc1Oc1cccc(C(F)(F)F)c1 [Diflufenican, diflufenican]
- pest or weed control at 120 g/ha (Eleusine indica (ELEIN); Eleusine indica, post-emergence, 504 h, 120 g a.i./ha, read-out: Herbicidal effect [%] on ELEIN 21 DAT): 10%
- pest or weed control at 120 g/ha (Avena fatua (AVEFA); Avena fatua, 240 h, 10 DAT, 120 g a.i./ha, read-out: Herbicidal effect [%] on AVEFA 10 DAT): 10%
- Herbicidal effect [%] on SORHA 21 DAT ([4]; 120 g a.i./ha, 21 DAT): 0%

Compound: bicyclopyrone
- Herbicidal effect [%] on ELEIN 21 DAT (Eleusine indica (ELEIN); 3 g a.i./ha): 30%
- Herbicidal effect [%] on BIDPI 21 DAT (Bidens pilosa (BIDPI); 3 g a.i./ha): 10%
- Herbicidal effect [%] on CENCY 10 DAT (Centaurea cyanus (CENCY); 3 g a.i./ha): 50%

Compound: CS(=O)(=O)c1cc(C(F)(F)F)ccc1C(=O)c1cnoc1C1CC1 [Isoxaflutole, isoxaflutole]
- Herbicidal effect [%] on ECHCG 10 DAT ([2]; 4 g a.i./ha): 60%
- Herbicidal effect [%] on ECHCG 21 DAT ([2]; 4 g a.i./ha): 40%
- pest or weed control at 4 g/ha (Avena fatua (AVEFA); [8]): 30%
- Herbicidal effect [%] on BIDPI 21 DAT (Bidens pilosa (BIDPI); 4 g a.i./ha): 40%
- Herbicidal effect [%] on PHBPU 21 DAT ([3]; 4 g a.i./ha): 10%
- pest or weed control at 4 g/ha (Kochia scoparia (KCHSC); Bassia scoparia, post-emergence, 504 h, 4 g a.i./ha, read-out: Herbicidal effect [%] on KCHSC 21 DAT): 30%

Compound: CCS(=O)(=O)c1cccnc1S(=O)(=O)NC(=O)Nc1nc(OC)cc(OC)n1 [Rimsulfuron, rimsulfuron]
- Herbicidal effect [%] on ECHCG 21 DAT ([2]; 0.9 g a.i./ha): 90%
- pest or weed control at 0.9 g/ha (Eleusine indica (ELEIN); Eleusine indica, post-emergence, 504 h, 0.9 g a.i./ha, read-out: Herbicidal effect [%] on ELEIN 21 DAT): 40%
- Herbicidal effect [%] on AVEFA 21 DAT (Avena fatua (AVEFA); 0.9 g a.i./ha): 50%
- pest or weed control at 0.9 g/ha (Avena fatua (AVEFA); Avena fatua, 240 h, 10 DAT, 0.9 g a.i./ha, read-out: Herbicidal effect [%] on AVEFA 10 DAT): 60%
- Herbicidal effect [%] on PHBPU 21 DAT ([3]; 0.9 g a.i./ha): 10%

Compound: COC(=O)c1csc(C)c1S(=O)(=O)NC(=O)n1nc(OC)n(C)c1=O [Thiencarbazone-methyl]
- Herbicidal effect [%] on AVEFA 21 DAT (Avena fatua (AVEFA); 0.33 g a.i./ha): 88%
- Herbicidal effect [%] on CENCY 21 DAT (Centaurea cyanus (CENCY); 0.33 g a.i./ha): 40%
- Herbicidal effect [%] on PHBPU 21 DAT ([3]; 0.33 g a.i./ha): 40%
- Herbicidal effect [%] on LOLRI 21 DAT (Lolium rigidum (LOLRI); 0.33 g a.i./ha, 21 DAT): 88%

From patent publication US20260271931A1, “HERBICIDAL MIXTURES” (Bayer Aktiengesellschaft, priority 2023, published 2026)
